Experimental findings from patent publication US7300645B2, “Oral composition comprising isomalt and remineralizing enhancing agent” (Sunstar Kabushiki Kaisha, priority 1998, dated 2007) are described below.

The assay is described as follows: Remineralizing ability 1: bovine enamel block with artificial caries immersed in sugar test solution. To be noted: sugar 20% in 3.0 mM calcium ion / 1.8 mM phosphate ion, immersed ten days. As to the method:
The remineralization effect of the sugars was evaluated in an in vitro test using a bovine tooth according to the procedures described in D. J. White et al., Caries Res., 21, 228 (1987).
1. An enamel section having 4 mm length×3 mm width was obtained from the bovine tooth. The section was embedded in a dental resin to obtain an enamel block.
2. An enamel varnish was applied to a portion of approximately ⅓ of the surface of the enamel block in order not to cause the demineralization of that portion. Then, the enamel block was demineralized with a demineralizing solution containing 50% of saturated hydroxyapatite/0.1M lactic acid/pH 5.0 to prepare an artificial caries.
3. An enamel varnish was applied to a portion of approximately ⅔ of the surface of the treated enamel block in order not to cause the remineralization of that portion. The enamel block was immersed for ten days in a test solution prepared by adding the test sugar into an aqueous solution containing 3.0 mM calcium ion and 1.8 mM phosphate ion so that the concentration of the sugar became 20%, to perform the remineralization treatment.
4. Three thin sections having approximately 500 μm in thickness were prepared from the enamel block. The central portion of the thin sections was ground so that the thickness became approximately 100 μm using a double-side polishing machine.
5. The X-ray photograph was taken of the thin section prepared in the fourth step. The mineral amounts of the demineralized portion and the remineralized portion were calculated based on the brightness of the each portion and a distance from the surface using an image processor. The mineral amount difference between the demineralized and remineralized portions was expressed as a remineralization value. […] A control test was performed in a similar manner to that described above, except that the test solution containing only 3.0 mM calcium ion and 1.8 mM phosphate ion but not containing the sugar was used.
Further, a similar test was performed in which sodium fluoride was added to the test solution to 2 ppm in terms of fluoride ion.

The mark [1] stands for this setting: sodium fluoride added to 2 ppm fluoride ion.

With `OC[C@@H](O)[C@@H](O)CO` [Erythritol], the Remineralization value reads like this: under setting [1], 1330 Vol. % μm; (system not containing fluoride) 602 Vol. % μm.
Turning to `OC[C@@H](O)[C@@H](O)[C@H](O)[C@H](O)CO` [Mannitol], the Remineralization value runs as follows: under setting [1], 1377 Vol. % μm; (system not containing fluoride) 640 Vol. % μm.
For `OC[C@@H](O)[C@@H](O)[C@H](O)[C@@H](O)CO` [Sorbitol] the same measures were 1358 Vol. % μm and 645 Vol. % μm.
The matching figures for `OC[C@H]1O[C@H](O[C@H]2O[C@H](CO)[C@@H](O)[C@H](O)[C@H]2O)[C@H](O)[C@@H](O)[C@@H]1O` [Trehalose]: 1205 Vol. % μm and 715 Vol. % μm.
For `OC[C@@H](O)[C@H](O)[C@@H](O)CO` [Xylitol] the same measures were 1636 Vol. % μm and 416 Vol. % μm.
As to “α-D-glucopyranosyl-1,6-mannitol, its isomer, α-D-glucopyranosyl-1,6-sorbitol or a mixture thereof [Palatinit]”, the Remineralization value by setting is: under setting [1], 2374 Vol. % μm; (system not containing fluoride) 1057 Vol. % μm.
